These results are taken from patent publication US20040138169A1, “Composition and use of substances for stabilising amino acids containing sulphur” (priority 2001, published 2004).

“Also recorded” adds a separate entry of the source.

In data set [1] the test system is sulphur-containing amino acids (HCY, CYS, CYSGLY, GLU) in whole blood. As to the kind of experiment: Stabilization of sulphur-containing amino acids (HCY, CYS, CYSGLY, GLU) together in whole blood samples. The class given is cell-based. The note with it: substance used alone, samples at room temperature. As to the method:
(§1) Material Used and Processes
(§2) The following inhibitors of methyl transferase or S-adenosylhomocysteine hydrolase have been tested
(§3) The effectiveness of the inhibitors have been tested in combination with the following acids:
(§4) The compositions of further reagents have been:
(§5) Mixture A: 5(4)-AMCA (5.2 mg) and DEOA (3.2 mg), dissolved in 500 μl phosphate buffer.
(§6) Composition of the buffer for mixture A:
(§7) All other substances have been dissolved in water.
(§8) Blood Withdrawal and Treatment of Samples
(§9) Corresponding amounts of stabilizers have been provided in EDTA- or Na-heparin-monovettes for each Example or Comparative Example (see Table 1). The blood withdrawal has been carried out in monovettes with and without stabilizers. For the control value, the monovettes have been centrifuged within 30 minutes after withdrawal.

Data set [2] relates to concentration of cysteine (CYS) in whole blood. Nature of the data set: Stabilization of the cysteine (CYS) concentration in withdrawn whole blood stored in monovettes with stabilizer. As to conditions: whole blood in EDTA- or Na-heparin-monovettes with stabilizer (amount per ml blood), room temperature. The class given is cell-based. How it is done:
as §1, §2, §3, §4, §5, §6, §7, §8, §9

The subject of data set [3] is concentration of glutathione (GLU) in whole blood. Nature of the data set: Stabilization of the glutathione (GLU) concentration in withdrawn whole blood stored in monovettes with stabilizer. The class given is cell-based. How it is done: as §1, §2, §3, §4, §5, §6, §7, §8, §9
Data set [4] deals with homocysteine level in blood. The note with it: cited from earlier work.
A short description of data set [5]: Storage stability of the reagent. The class given is physicochemical. As to conditions: can be stored only in cooled state (+4° C.). As to the method: A problem which occurs when using 3-deazaadenosine resides in that noticable variations of the measured values occur, lying in the range of up to 2 μmol/l in 60 hours with homocysteine and in the range of up to 60 μmol/l in 60 hours with cysteine. […] A further problem resides in that 3-deazaadenosine is not stable at room temperature and can be stored only in cooled state (+4° C.), which limits also its shipment capabilities. However, a simple handling of the reagents is of great importance in the diagnostic medicine, because for example withdrawn blood must be present in an unmodified form and transportable over an extended period without larger expenditure like, for example, cooling.

The test system of data set [6] is HCY-concentration in whole blood. As to the kind of experiment: Stabilization of the homocysteine (HCY) concentration in withdrawn whole blood stored in monovettes with stabilizer. The class given is cell-based. The note with it: room temperature; for HCY-SD (duration of stabilization): whole blood in EDTA- or Na-heparin-monovettes with stabilizer (amount per ml blood); for stabilization of homocysteine (duration): whole blood. As to the method: as §1, §2, §3, §4, §5, §6, §7, §8, §9

Data set [7] deals with concentration of cysteinyl glycine (CYSGLY) in whole blood. As to the kind of experiment: Stabilization of the cysteinyl glycine (CYSGLY) concentration in withdrawn whole blood stored in monovettes with stabilizer. The class given is cell-based. How it is done: as §1, §2, §3, §4, §5, §6, §7, §8, §9

Regarding `Nc1ncnc2c1ncn2[C@H]1C[C@H](O)[C@@H](CO)O1` [2′-deoxyadenosin], the “stabilization of the sulphur-containing amino acids (in words)” value (“stabilization … (in words)” below) in data set [1] is “no significant stabilization”.

`NC(=O)c1nc[nH]c1N` [5(4)-aminoimidazol-4(5)-carboxamid, 5(4)-aminoimidazol-4(5)-carboxamide]: the “stabilization … (in words)” value in data set [1] is on record as “no significant stabilization”.

`Nc1nccc2c1ncn2[C@@H]1O[C@H](CO)[C@@H](O)[C@H]1O` [Cmp.-Ex. 1, 3-deazaadenosin]: in data set [2], the “CYS-SD (duration of stabilization)” value came to 56 h. Moreover, the “inhibition of the formation of glutathione (in words)” value in data set [3] is reported as “does not inhibit”. Moreover, the “increase of the homocysteine level” value in data set [4] (72 hours after the blood withdrawal) is on record as “about 10%”. In data set [4] (blood samples), the “time over which the reaction from S-adenosylhomocysteine to homocysteine is effectively inhibited” value was “up to 72 hours” and the “time without increase of the homocysteine level in blood” value was “up to 24 hours”. In addition, the “stability of the reagent at room temperature (in words)” value in data set [5] is recorded as “not stable”. Moreover, the “HCY-SD (duration of stabilization)” value in data set [6] is 56 h. Further, in data set [7], the “inhibition of the formation of cysteinyl glycine (in words)” value is reported as “does not inhibit”.

Consider `O=C1O[C@H]([C@@H](O)CO)C(O)=C1O` [Cmp.-Ex. 2, ascorbic acid], for which the “CYS-SD (duration of stabilization)” value in data set [2] turned out to be 73 h. The “HCY-SD (duration of stabilization)” value in data set [6] is given as 73 h. In addition, in data set [7] (whole blood in EDTA- or Na-heparin-monovettes with stabilizer (amount per ml blood), room temperature), the “CYSGLY-SD (duration of stabilization)” value amounted to 73 h.

On to `O=C(O)/C=C/C(=O)O` [Cmp.-Ex. 3, fumaric acid], for which the “CYS-SD (duration of stabilization)” value in data set [2] amounted to 47 h. Besides, the “HCY-SD (duration of stabilization)” value in data set [6] was found to be 47 h.

Consider `Nc1ncnc2c1ncn2[C@@H]1C=C(CO)[C@@H](O)[C@H]1O` [Ex. 13, neplanocin A], for which, in data set [6], the “HCY-SD (duration of stabilization)” value turned out to be 70 h.

Turning to `Nc1nccc2c1ncn2[C@@H]1C=C(CO)[C@@H](O)[C@H]1O` [Ex. 14, 3-deazaneplanocin A], the “HCY-SD (duration of stabilization)” value in data set [6] is listed as 143 h. Besides, the “stabilization of homocysteine (duration)” value in data set [6] is “at least 143 hours”; in data set [6] (listed as 3DA-NeplA) it was 143 h.

Regarding `O=C(O)CN(CCN(CC(=O)O)CC(=O)O)CC(=O)O` [Na-EDTA, ethylenediamine tetraacetic acid], the “stabilization … (in words)” value in data set [1] is recorded as “no stabilization”.

In the case of `[F-].[Na+]` [NaF], the “change of the homocysteine level in blood samples (in words)” value in data set [4] (in comparison with the initial value at the time of withdrawing the blood) was “no increase; also recorded: decrease”.

As to `O=C(O)CC(O)(CC(=O)O)C(=O)O` [citric acid], the “stabilization … (in words)” value in data set [1] was “no stabilization”.
